Source: ChEMBL document CHEMBL1201862, “PubChem BioAssay data set” (2004)
Calls of active or inactive are those of the source.

How the values were obtained:
[1] = A Cell Based Secondary Assay To Explore Cytotoxicity of Compounds that Sensitize Mycobacterium Tuberculosis to Beta-Lactam Antibiotics.; format: functional
14-3-3 protein gamma = 14-3-3 protein gamma (Homo sapiens, UniProt P61981); experiment: modulators of 14-3-3 gamma client binding – dose response (AID 711); format: functional
[2] = target: T1, Probable nicotinate-nucleotide adenylyltransferase (Staphylococcus aureus (strain N315), UniProt P65502); format: functional, Staphylococcus aureus subsp. aureus N315;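 as to IC50 Mean: confirmatory dose-response retesting of NadD inhibitor hits first found in an ultra-high-throughput screen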
[3] = target: T1, Probable nicotinate-nucleotide adenylyltransferase; format: functional, Staphylococcus aureus subsp. aureus N315; conditions: read-out: IC50_Mean
Genome polyprotein = Genome polyprotein (Hepatitis C virus, UniProt Q2Q167); experiment: disruption of hepatitis C core self-association – biochemical, TR-FRET, dose response (AID 2159); parameters: species or system Hepacivirus hominis;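 also: blocks dimerization of HCV core protein measured by TR-FRET between tagged core106 pairs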
[4] = target: Induced myeloid leukemia cell differentiation protein Mcl-1 (Homo sapiens, UniProt Q07820); format: functional
NS3 = NS3 (Hepatitis C virus, UniProt A3EZJ3); experiment: PubChem AID 2173; parameters: species or system Hepacivirus hominis
[5] = target: Transitional endoplasmic reticulum ATPase (Homo sapiens, UniProt P55072, C522A); experiment: C522A mutant p97 ATPase inhibitors, dose response, counter-screen for p97 inhibitor project, biochemical, luminescence (AID 1544)
[6] = target: Transitional endoplasmic reticulum ATPase (Homo sapiens, UniProt P55072); experiment: p97 ATPase inhibitors, dose response, biochemical (AID 1534)
[7] = viability of uninfected HEp-2 cells – cell-based, HTS, cytotoxicity control for RSV inhibitor project, dose response (AID 2410); format: functional; conditions: human respiratory syncytial virus
[8] = target: Peroxisome proliferator-activated receptor gamma/Nuclear receptor coactivator 2 (Homo sapiens, UniProt P37231); format: functional;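 also: agonist potency for raising coactivator recruitment to the receptor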
[9] = target: Peroxisome proliferator-activated receptor gamma/Nuclear receptor coactivator 3 (Homo sapiens, UniProt P37231); format: functional;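 also: agonist potency for raising coactivator recruitment to the receptor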
[10] = target: T2, Heat shock factor protein 1 (Mus musculus, UniProt P38532); experiment: decrease of HSF1-responsive luciferase luminescence – cell-based, NIH3T3, dose retest, confirmation (AID 2382); format: functional;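 also: NIH3T3 fibroblasts with HSF1-driven luciferase reporter stressed by proteasome inhibitor MG132; luminescence from HSF1-driven luciferase expression after 8 hours of MG132 stress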
T2 sequence (P38532 whole entry): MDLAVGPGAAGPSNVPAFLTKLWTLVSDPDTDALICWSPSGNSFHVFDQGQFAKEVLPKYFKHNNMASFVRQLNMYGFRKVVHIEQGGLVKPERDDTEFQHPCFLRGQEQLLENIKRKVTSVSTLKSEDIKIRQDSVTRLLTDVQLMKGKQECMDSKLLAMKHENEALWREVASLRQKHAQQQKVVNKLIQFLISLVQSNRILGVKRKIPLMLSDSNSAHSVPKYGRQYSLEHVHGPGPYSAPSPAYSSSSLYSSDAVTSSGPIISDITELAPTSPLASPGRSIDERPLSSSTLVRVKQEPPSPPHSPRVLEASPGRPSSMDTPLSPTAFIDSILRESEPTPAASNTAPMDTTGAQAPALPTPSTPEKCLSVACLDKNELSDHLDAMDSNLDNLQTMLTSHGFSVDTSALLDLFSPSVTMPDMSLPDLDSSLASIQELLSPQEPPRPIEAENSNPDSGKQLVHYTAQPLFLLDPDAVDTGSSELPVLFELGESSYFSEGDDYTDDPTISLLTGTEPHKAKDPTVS

[11] = target: Peroxisome proliferator-activated receptor gamma/Nuclear receptor coactivator 1 (Homo sapiens, UniProt P37231); format: functional;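 also: agonist potency as compounds enhance coactivator SRC-1 recruitment to PPARgamma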
Vero = experiment: viability of Vero cells under compound – cytotoxicity control for flavivirus capping enzyme inhibitors (AID 588742); format: functional; conditions: Chlorocebus sabaeus
Nonstructural protein 1 = Nonstructural protein 1 (Influenza A virus, UniProt Q194T2); format: functional, Influenza A virus (A/California/07/2009(H1N1))
[12] = target: T3, Mannose-6-phosphate isomerase (Homo sapiens, UniProt P34949); experiment: MPI inhibition at elevated mannose 6-phosphate – biochemical, fluorescence intensity, high mannose 6-phosphate, primary screen (AID 1220)
T3 sequence (P34949 whole entry): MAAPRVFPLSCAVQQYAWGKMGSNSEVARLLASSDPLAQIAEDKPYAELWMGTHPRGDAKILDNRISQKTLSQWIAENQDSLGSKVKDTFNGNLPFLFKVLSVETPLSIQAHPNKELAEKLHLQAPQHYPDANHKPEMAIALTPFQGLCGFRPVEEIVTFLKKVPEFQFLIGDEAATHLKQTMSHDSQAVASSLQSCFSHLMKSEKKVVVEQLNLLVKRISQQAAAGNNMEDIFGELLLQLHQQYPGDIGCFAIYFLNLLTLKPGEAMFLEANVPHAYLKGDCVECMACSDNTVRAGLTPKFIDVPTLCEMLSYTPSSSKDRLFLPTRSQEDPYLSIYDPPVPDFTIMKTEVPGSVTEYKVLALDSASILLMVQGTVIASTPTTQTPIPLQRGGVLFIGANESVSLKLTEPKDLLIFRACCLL

[13] = NIH3T3 cell viability loss – ATP luminescence, mouse fibroblasts, counter-screen, dose response (AID 2010); format: functional, cell-based;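 also: cells exposed to compound for about 90 hours before reading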
[14] = Trypanosoma cruzi growth suppression in host cells – NIH3T3 host cells, beta-gal luminescence, confirmation (AID 2044); format: functional, cell-based;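 also: intracellular parasites grown in NIH/3T3 mouse fibroblasts as host cells; luminescent beta-galactosidase reporter signal from transgenic T. cruzi replicating inside host cells; inhibitors lower the luminescence signal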
[15] = target: T4, Alkaline phosphatase, tissue-nonspecific isozyme (Homo sapiens, UniProt P05186)
T4 sequence (P05186 whole entry): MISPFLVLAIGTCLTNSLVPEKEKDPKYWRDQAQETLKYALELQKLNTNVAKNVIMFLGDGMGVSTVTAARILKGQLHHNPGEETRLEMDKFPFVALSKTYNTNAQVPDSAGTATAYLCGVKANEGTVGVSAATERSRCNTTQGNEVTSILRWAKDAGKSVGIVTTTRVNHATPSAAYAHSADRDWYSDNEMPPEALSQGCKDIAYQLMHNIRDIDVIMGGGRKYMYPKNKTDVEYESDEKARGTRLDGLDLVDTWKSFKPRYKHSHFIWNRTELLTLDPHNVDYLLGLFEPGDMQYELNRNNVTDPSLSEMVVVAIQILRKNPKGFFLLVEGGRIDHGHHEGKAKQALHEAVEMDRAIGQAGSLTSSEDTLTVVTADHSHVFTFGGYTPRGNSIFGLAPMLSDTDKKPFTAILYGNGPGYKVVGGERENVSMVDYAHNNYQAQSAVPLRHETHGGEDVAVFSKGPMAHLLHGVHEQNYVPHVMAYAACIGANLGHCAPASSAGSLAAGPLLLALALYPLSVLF

[16] = Luminescence Cell-Based Dose Confirmation HTS to Identify Inhibitors of Polyadenylation.; format: functional
[17] = target: Sphingosine 1-phosphate receptor 4 (Homo sapiens, UniProt O95977); experiment: Fluorescence dose response cell-based high throughput screening assay for antagonists of the Sphingosine 1-Phosphate Receptor 4 (S1P4). [Related pubchem assays: 1524 (Confirmation in triplicates.), 1510 (Primary screen.)]; format: functional
[18] = Luminescence Cell-Based Dose Retest to Confirm Inhibitors of Cancer Stem Cells. [Related pubchem assays (depositor defined):AID2717, AID2721]; format: functional; conditions: Homo sapiens
[19] = viability of HCT116 lacking mutant beta-catenin – cell-based, human colon tumor, dose response (AID 1045); format: functional;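 also: HCT116 colon tumor cells with beta catenin knocked out; cells exposed to compound for 60 hours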
X-box-binding protein 1 = X-box-binding protein 1 (Homo sapiens, UniProt P17861); format: functional, Cricetulus griseus;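 also: confirmatory dose-response counter-screen serving a CHOP assay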
[20] = viability of PTEN-deleted HCT116 cells – cell-based, HCT116 PTEN knockout, dose response (AID 1047); format: functional;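 also: HCT116 colon tumor cells with PTEN knocked out; cells exposed to compound for 60 hours before readout; potency for loss of cell viability measured by luminescence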
H9c2 = experiment: cells; format: functional, cell-based; conditions: Rattus norvegicus, H9c2, Myocardium;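 also: confirmatory concentration-response retest of ultra-high-throughput screening hits for modulation of myocardial damage; cell death induced by hydrogen peroxide oxidative stress; compound pretreatment for 60 min then peroxide exposure for 2 h; potency is for protecting the cells against peroxide damage rather than for killing them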
Estrogen receptor beta = Estrogen receptor beta (Homo sapiens, UniProt Q92731);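 also: recombinant ER-beta bound to coactivator SRC1 peptide in presence of estradiol agonist; inhibitors block coactivator peptide binding and lower the FRET signal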
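For AC50 in this document: cells exposed to compound for roughly 70 hours or longer before luminescence read.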

Chain of Transitional endoplasmic reticulum ATPase (Homo sapiens, UniProt P55072, C522A) (P55072 2-806 C522A limits assumed): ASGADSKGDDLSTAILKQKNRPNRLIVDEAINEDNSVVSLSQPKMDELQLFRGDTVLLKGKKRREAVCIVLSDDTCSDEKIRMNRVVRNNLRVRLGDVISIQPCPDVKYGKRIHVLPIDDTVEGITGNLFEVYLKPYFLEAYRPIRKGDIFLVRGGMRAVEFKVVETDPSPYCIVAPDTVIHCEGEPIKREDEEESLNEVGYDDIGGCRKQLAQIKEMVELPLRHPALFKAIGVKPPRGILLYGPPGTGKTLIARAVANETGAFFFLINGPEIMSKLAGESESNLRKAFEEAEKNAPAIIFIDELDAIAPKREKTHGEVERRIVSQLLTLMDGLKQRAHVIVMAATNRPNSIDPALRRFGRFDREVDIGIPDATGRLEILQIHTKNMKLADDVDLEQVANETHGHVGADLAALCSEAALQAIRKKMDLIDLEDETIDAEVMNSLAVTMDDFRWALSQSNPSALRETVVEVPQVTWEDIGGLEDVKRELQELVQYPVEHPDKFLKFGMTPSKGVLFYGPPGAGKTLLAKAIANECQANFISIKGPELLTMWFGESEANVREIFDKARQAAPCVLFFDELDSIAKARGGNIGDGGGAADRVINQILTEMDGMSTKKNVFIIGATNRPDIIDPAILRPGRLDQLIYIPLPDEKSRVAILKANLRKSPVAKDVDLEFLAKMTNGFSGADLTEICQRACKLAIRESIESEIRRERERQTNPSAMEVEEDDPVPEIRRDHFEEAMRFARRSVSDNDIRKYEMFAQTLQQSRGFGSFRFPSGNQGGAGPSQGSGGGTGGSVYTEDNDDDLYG
Chain of Transitional endoplasmic reticulum ATPase (Homo sapiens, UniProt P55072) (P55072 whole entry): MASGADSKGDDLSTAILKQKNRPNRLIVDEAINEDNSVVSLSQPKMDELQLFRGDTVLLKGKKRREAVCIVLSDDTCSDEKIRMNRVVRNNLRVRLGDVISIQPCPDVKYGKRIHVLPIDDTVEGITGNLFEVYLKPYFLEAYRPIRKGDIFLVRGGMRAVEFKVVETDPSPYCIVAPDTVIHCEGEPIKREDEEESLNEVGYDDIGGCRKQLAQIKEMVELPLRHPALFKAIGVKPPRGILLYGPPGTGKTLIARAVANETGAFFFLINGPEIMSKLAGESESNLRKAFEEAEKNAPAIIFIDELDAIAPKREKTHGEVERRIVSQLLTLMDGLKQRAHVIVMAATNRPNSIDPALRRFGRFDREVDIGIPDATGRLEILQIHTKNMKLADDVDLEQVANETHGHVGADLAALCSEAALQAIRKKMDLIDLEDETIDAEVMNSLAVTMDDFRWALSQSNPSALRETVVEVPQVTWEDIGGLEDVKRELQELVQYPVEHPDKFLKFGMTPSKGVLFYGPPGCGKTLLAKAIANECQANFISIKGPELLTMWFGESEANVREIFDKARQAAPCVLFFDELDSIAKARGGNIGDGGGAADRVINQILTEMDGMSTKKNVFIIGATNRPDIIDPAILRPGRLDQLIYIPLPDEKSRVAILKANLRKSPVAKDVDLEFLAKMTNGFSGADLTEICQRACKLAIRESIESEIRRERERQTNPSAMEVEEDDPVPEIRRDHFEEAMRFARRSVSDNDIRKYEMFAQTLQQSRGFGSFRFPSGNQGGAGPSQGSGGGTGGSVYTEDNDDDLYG
Chain of Peroxisome proliferator-activated receptor gamma/Nuclear receptor coactivator 1 (P37231 whole entry): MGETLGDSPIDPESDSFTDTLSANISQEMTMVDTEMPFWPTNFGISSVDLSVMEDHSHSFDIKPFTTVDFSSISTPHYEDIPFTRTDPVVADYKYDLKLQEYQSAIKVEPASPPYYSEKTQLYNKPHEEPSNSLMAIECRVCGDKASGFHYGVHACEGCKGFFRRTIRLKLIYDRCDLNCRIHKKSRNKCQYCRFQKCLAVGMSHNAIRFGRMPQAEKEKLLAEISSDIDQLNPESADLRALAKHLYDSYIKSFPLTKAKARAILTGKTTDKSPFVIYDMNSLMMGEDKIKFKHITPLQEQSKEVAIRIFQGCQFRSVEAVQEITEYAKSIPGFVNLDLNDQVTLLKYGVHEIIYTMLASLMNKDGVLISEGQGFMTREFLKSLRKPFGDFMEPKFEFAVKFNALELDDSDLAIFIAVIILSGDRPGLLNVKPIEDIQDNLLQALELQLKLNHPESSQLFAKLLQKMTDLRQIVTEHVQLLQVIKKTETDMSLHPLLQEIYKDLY
Chain of Peroxisome proliferator-activated receptor gamma/Nuclear receptor coactivator 1 (Q15788 whole entry, further chain): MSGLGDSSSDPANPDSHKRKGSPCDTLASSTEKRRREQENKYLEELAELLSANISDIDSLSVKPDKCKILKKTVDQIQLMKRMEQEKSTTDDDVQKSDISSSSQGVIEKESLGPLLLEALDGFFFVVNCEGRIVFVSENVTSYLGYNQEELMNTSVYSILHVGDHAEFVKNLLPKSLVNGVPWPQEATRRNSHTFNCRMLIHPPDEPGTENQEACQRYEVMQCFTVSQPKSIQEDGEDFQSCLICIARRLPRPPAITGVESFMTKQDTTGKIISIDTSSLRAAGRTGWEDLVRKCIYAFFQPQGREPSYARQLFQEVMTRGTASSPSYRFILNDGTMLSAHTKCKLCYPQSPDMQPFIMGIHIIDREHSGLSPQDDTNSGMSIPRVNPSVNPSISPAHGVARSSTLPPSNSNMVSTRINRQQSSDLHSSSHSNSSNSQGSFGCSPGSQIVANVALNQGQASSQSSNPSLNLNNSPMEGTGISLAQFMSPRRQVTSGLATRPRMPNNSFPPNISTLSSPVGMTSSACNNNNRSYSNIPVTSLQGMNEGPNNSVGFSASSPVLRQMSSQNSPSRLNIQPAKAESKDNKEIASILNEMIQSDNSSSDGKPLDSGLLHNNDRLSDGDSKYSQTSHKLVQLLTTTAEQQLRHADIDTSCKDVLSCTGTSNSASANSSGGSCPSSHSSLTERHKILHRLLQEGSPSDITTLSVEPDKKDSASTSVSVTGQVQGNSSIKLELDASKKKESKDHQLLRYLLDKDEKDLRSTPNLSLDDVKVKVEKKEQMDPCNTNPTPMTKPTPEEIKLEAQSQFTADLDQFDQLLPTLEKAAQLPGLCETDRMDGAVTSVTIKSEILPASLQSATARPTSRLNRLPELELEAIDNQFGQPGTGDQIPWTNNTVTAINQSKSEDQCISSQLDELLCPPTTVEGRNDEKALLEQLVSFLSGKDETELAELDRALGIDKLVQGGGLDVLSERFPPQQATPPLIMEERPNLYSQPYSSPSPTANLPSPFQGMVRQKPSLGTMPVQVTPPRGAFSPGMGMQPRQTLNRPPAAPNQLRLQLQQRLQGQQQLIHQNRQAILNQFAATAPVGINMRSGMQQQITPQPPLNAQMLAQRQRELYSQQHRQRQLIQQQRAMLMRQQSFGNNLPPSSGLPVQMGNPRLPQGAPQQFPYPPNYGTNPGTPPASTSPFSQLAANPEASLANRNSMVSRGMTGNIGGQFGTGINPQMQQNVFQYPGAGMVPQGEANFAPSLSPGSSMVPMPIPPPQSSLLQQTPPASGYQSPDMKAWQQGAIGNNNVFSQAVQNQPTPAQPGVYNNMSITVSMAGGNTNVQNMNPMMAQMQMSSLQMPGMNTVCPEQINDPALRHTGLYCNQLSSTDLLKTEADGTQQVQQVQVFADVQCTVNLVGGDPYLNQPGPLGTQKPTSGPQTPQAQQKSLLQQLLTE
T1 sequence (P65502 whole entry): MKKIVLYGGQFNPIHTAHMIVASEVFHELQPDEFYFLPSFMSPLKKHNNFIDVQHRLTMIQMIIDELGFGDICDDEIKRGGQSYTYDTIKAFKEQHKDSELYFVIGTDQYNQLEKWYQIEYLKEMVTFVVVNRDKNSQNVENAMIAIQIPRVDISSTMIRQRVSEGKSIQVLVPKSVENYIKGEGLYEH
Chain of 14-3-3 protein gamma (P61981 whole entry): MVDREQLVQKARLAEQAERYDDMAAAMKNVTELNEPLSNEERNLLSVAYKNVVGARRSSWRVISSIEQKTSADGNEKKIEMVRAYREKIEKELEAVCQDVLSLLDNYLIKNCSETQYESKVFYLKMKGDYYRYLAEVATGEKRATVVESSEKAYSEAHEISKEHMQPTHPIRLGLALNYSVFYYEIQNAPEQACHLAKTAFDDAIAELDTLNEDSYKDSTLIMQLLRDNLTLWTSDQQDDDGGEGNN
Chain of NS3 (A3EZJ3 whole entry): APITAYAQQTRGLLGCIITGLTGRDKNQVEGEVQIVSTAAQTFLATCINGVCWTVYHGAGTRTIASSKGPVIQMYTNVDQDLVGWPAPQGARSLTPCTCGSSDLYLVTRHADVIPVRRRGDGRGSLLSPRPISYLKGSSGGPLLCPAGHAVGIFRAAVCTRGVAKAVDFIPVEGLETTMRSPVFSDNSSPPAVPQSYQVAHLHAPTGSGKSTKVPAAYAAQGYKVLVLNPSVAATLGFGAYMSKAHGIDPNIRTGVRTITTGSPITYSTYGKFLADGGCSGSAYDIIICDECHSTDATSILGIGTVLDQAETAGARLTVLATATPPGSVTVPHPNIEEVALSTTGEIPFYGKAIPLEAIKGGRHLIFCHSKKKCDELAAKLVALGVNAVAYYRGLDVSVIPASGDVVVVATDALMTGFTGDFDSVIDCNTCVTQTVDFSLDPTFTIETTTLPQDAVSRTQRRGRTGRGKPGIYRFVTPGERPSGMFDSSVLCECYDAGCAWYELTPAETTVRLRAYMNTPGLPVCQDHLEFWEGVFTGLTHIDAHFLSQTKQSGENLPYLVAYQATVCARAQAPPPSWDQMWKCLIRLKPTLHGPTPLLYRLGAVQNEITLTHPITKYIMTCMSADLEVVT
Chain of Nonstructural protein 1 (Q194T2 whole entry): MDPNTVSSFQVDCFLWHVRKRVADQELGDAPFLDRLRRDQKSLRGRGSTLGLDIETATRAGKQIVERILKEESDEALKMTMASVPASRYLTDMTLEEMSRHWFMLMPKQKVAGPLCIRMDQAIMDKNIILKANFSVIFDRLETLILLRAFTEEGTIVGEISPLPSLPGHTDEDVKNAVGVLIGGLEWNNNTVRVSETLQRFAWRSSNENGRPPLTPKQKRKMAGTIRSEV
Chain of Genome polyprotein (Q2Q167 whole entry): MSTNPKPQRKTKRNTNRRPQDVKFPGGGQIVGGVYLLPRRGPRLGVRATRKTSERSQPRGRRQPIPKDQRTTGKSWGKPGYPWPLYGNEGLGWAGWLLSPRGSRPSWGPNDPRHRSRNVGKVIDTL

With `CN(Cc1ccccc1)C(=S)NC(=O)c1ccc(-c2ccccc2)cc1` the CC50 [1] was > 40 µM (active).
With `C#CCN(C)C(C)Cc1ccccc1` (stereo not drawn) the IC50 (14-3-3 protein gamma) was > 50 µM (not active).
In the case of `CN(C)C=O.O=C(Nc1cccc(S(=O)(=O)NC2=NCCCCC2)c1)c1cc(-c2ccco2)nc2ccccc12`, the IC50 [2] is reported as 6.77 µM (active), the IC50 [3] is reported as 23.1 µM (active) and the IC50 (Genome polyprotein) is reported as > 49.8 µM (not active). The IC50 [4] was 1.69 µM (active).
In the case of `Cc1cc(N2CCCCCC2)nc(-c2ccccc2O)n1`, the CC50 [1] is reported as > 40 µM (active).
With `O=C(CCCSc1ccccc1)Nc1nc(-c2ccco2)c(-c2ccco2)s1` the IC50 (NS3) was 5.62 µM (active).
In the case of `CC(C)c1nc2sc3c(S)ncnc3c2c2c1CCC2`, the IC50 [5] is reported as > 50 µM (not active), the IC50 [6] is reported as 42.2 µM (not active) and the CC50 [7] is reported as 14.3 µM (active).
In the case of `Cc1ccc(CN2CCN(Cc3cccc(OCCO)c3)CC2CCO)o1` (stereo not drawn), the EC50 [8] is reported as > 79.4 µM (not active), the EC50 [9] is reported as > 79.4 µM (not active) and the EC50 [10] is reported as > 195 µM (not active). For the same molecule, the EC50 [11] was > 79.4 µM (not active).
For `C=CCN1C=C/C(=C/c2ccc3cc(C)ccc3[n+]2CC)c2ccccc21`, the CC50 (Vero) was 4.96 µM (active), the IC50 (Nonstructural protein 1) was 7.64 µM (active) and the IC50 [12] was 32.9 µM (active).
For `C=CCn1c(SCC(=O)NCCCC)nc2scc(-c3ccco3)c2c1=O`, the IC50 (NS3) was 37.5 µM (not active).
With `O=C(Nc1ccncc1)Nc1cccc(Cl)c1Cl` the EC50 [13] was > 60 µM (not active), the EC50 [14] was < 0.1 µM (active) and the EC50 (cells) was 0.209 µM (active).
For `Cc1cc(C)c(NC(=O)Cn2c(=O)n(-c3ccc(CC(=O)NCC4CCCO4)cc3)c(=O)c3ccccc32)c(C)c1` (stereo not drawn), the EC50 [15] was > 100 µM (not active).
In the case of `COC(=O)C1=C(C)N(C)C(C)=C(C(=O)OC)C1c1ccc(C(=O)OC)cc1`, the IC50 (14-3-3 protein gamma) is reported as > 50 µM (not active).
In the case of `CC(c1ccccc1)C(Cc1nc2ccccc2[nH]1)c1nc2ccccc2[nH]1` (stereo not drawn), the EC50 [15] is reported as 61.3 µM (not active).
In the case of `CCN(CC)C(=O)Oc1ccc2c(c1)O/C(=C\c1ccco1)C2=O`, the EC50 [16] is reported as > 120 µM (not active).
With `CN[C@H]1C[C@H]2O[C@@](C)([C@H]1OC)n1c3ccccc3c3c4c(c5c6ccccc6n2c5c31)C(=O)NC4` the IC50 [17] was 0.183 µM (active).
For `Cc1cc(C2(c3ccc(O)c(C)c3)C(=O)Nc3ccccc32)ccc1O`, the AC50 [18] was 5.36 µM (active), the EC50 [19] was 17 µM (active) and the “Absolute IC50 (XBP1)” value (X-box-binding protein 1) was 10 µM. For the same molecule, the EC50 [20] was 17.4 µM (active).
In the case of `O=C(Nc1ccc(F)cc1)C1C(c2ccccc2)C1(Cl)Cl` (stereo not drawn), the IC50 [5] is reported as > 50 µM (not active) and the IC50 [6] is reported as > 50 µM (not active).
For `CCOC(=O)c1s/c(=N\C(=O)c2cc(OC)c(OC)c(OC)c2)n(C)c1C`, the EC50 [8] was 30 µM (not active), the EC50 [9] was 49.7 µM (not active) and the EC50 [11] was 42 µM (not active).
For `NC(=O)c1cccc2c1C(=O)N(C1CCCCC1)C2`, the IC50 (H9c2) was > 79 µM (inactive) and the IC50 (Estrogen receptor beta) was 12.5 µM (active).
